Assay results reported in ChEMBL document CHEMBL1201862, “PubChem BioAssay data set” (2004).
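A five-concentration, 48-hour dose response in 96-well plates underlies each endpoint, interpolated linearly between surrounding concentrations. GI50: concentration for 50% inhibition of growth.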 The source made the active and inactive calls. Rule as the data show it: active = GI50 up to about 1.1 µM and inactive = higher.

Assays:
Experiment in all cases: NCI-60 cell line screen, 48 h
OVCAR-3 = system: OVCAR-3
UO-31 = system: UO-31
SNB-75 = system: SNB-75
NCI-H460 = system: NCI-H460
NCI-H23 = system: NCI-H23
OVCAR-8 = system: OVCAR-8
HCT-15 = system: HCT-15
U-251 = system: U-251
SN12C = system: SN12C
IGROV-1 = system: IGROV-1
NCI-H522 = system: NCI-H522
SNB-19 = system: SNB-19
OVCAR-4 = system: OVCAR-4
SF-539 = system: SF-539
M14 = system: M14
OVCAR-5 = system: OVCAR-5
HCT-116 = system: HCT-116
HOP-62 = system: HOP-62
A498 = system: A498

Row | Compound | GI50 (OVCAR-3) | GI50 (UO-31) | GI50 (SNB-75) | GI50 (NCI-H460) | GI50 (NCI-H23) | GI50 (OVCAR-8) | GI50 (HCT-15) [µM] | GI50 (U-251) | GI50 (SN12C) | GI50 (IGROV-1) | GI50 (NCI-H522) | GI50 (SNB-19) | GI50 (OVCAR-4) | GI50 (SF-539) | GI50 (M14) | GI50 (OVCAR-5) | GI50 (HCT-116) | GI50 (HOP-62) | GI50 (A498)
1 | Cc1cc2c(=O)cc(-c3ccc(F)cc3)oc2c(C(=O)O)c1C | > 100 µM (inactive) | > 100 µM (inactive) | > 100 µM (inactive) | > 100 µM (inactive) | > 100 µM (inactive) | > 100 µM (inactive) | > 100 | > 100 µM (inactive) | > 100 µM (inactive) | > 100 µM (inactive) | > 100 µM (inactive) | > 100 µM (inactive) | > 100 µM (inactive) | > 100 µM (inactive) | > 100 µM (inactive) | > 100 µM (inactive) | > 100 µM (inactive) |  | 
2 | CC1(C)C(=NN=C(N)N)C(C)(C)C1=NN=C(N)N | > 100 µM (inactive) | > 100 µM (inactive) | > 100 µM (inactive) | > 100 µM (inactive) | > 100 µM (inactive) | > 100 µM (inactive) | > 100 | > 100 µM (inactive) | > 100 µM (inactive) | > 100 µM (inactive) | > 100 µM (inactive) | > 100 µM (inactive) | > 100 µM (inactive) | > 100 µM (inactive) | > 100 µM (inactive) | > 100 µM (inactive) | > 100 µM (inactive) | > 10 µM (inactive) | 
3 | Cc1cc(=O)c2c(O)cc3c(c2o1)CC=C(COC1OC(COC2OC(CO)C(O)C(O)C2O)C(O)C(O)C1O)CO3 (stereo unspecified) | > 100 µM (inactive) | > 100 µM (inactive) | > 100 µM (inactive) | > 100 µM (inactive) | > 100 µM (inactive) | > 100 µM (inactive) | > 100 | > 100 µM (inactive) | > 100 µM (inactive) | > 100 µM (inactive) | > 100 µM (inactive) | > 100 µM (inactive) | > 100 µM (inactive) | > 100 µM (inactive) | > 100 µM (inactive) | > 100 µM (inactive) | > 100 µM (inactive) | > 100 µM (inactive) | 
4 | COC(=O)C1=C(O)c2cc(OC)c(OC)cc2C(c2ccc(OC)c(OC)c2)C1 (stereo unspecified) | > 100 µM (inactive) | > 100 µM (inactive) | > 100 µM (inactive) | 66.7 µM (inactive) | > 100 µM (inactive) | 93.1 µM (inactive) | 78.7 | > 100 µM (inactive) | 51.2 µM (inactive) | > 100 µM (inactive) |  |  | > 100 µM (inactive) | > 100 µM (inactive) | > 100 µM (inactive) | > 100 µM (inactive) | 56.4 µM (inactive) | > 100 µM (inactive) | 36.3 µM (inactive)
5 | COc1ccc2c3c1C(=O)CCC3CO2 (stereo unspecified) | > 100 µM (inactive) | > 100 µM (inactive) |  | > 100 µM (inactive) | > 100 µM (inactive) | > 100 µM (inactive) | > 100 | > 100 µM (inactive) | > 100 µM (inactive) | > 100 µM (inactive) | > 100 µM (inactive) | > 100 µM (inactive) | > 100 µM (inactive) | > 100 µM (inactive) | > 100 µM (inactive) | > 100 µM (inactive) | > 100 µM (inactive) | > 100 µM (inactive) | > 100 µM (inactive)
6 | CC1(C)CC2CC(CC(C)(C)C2=O)C1=O | > 100 µM (inactive) | > 100 µM (inactive) | > 100 µM (inactive) | > 100 µM (inactive) | > 100 µM (inactive) | > 100 µM (inactive) | > 100 | > 100 µM (inactive) | > 100 µM (inactive) | > 100 µM (inactive) |  | > 100 µM (inactive) | > 100 µM (inactive) | > 100 µM (inactive) | > 100 µM (inactive) | > 100 µM (inactive) | > 100 µM (inactive) | > 100 µM (inactive) | > 100 µM (inactive)
7 | Cc1ccc(-c2nnc(-c3nn(-c4ccccc4)c4nc5ccccc5nc34)o2)cc1 | 14.1 µM (inactive) | 20.4 µM (inactive) | 4.1 µM (inactive) | 9.04 µM (inactive) | 14 µM (inactive) | 10.9 µM (inactive) | 21.4 | 11.8 µM (inactive) | 22.4 µM (inactive) | 17.6 µM (inactive) | 17.9 µM (inactive) | 21.5 µM (inactive) | 3.01 µM (inactive) | 3.03 µM (inactive) | 25.8 µM (inactive) | > 100 µM (inactive) | 12 µM (inactive) | 13.5 µM (inactive) | 
8 | O=C(c1ccccc1)N1CCc2c([nH]c3ccccc23)C1 | 38 µM (inactive) | 22.5 µM (inactive) | 66.8 µM (inactive) | 41.7 µM (inactive) | 33.4 µM (inactive) | 29.5 µM (inactive) | 49.1 | 16.4 µM (inactive) | 34 µM (inactive) | 52.2 µM (inactive) | 22 µM (inactive) | 59.7 µM (inactive) | 53 µM (inactive) | 76.9 µM (inactive) | 34 µM (inactive) | > 100 µM (inactive) | 38 µM (inactive) | 91.2 µM (inactive) | 
9 | C=C(CN(C)C)C(=O)c1ccc(C(=O)C(=C)CN(C)C)cc1 | > 100 µM (inactive) | > 100 µM (inactive) | > 100 µM (inactive) | > 100 µM (inactive) | > 100 µM (inactive) | > 100 µM (inactive) | > 100 | > 100 µM (inactive) | > 100 µM (inactive) | > 100 µM (inactive) | > 100 µM (inactive) | > 100 µM (inactive) | > 100 µM (inactive) | > 100 µM (inactive) | > 100 µM (inactive) | > 100 µM (inactive) | > 100 µM (inactive) |  | > 100 µM (inactive)
10 | O=C(O)CCNS(=O)(=O)c1ccc([N+](=O)[O-])cc1 | > 100 µM (inactive) | 66.8 µM (inactive) | > 100 µM (inactive) | > 100 µM (inactive) | > 100 µM (inactive) | > 100 µM (inactive) | > 100 | > 100 µM (inactive) | > 100 µM (inactive) | > 100 µM (inactive) | > 100 µM (inactive) | > 100 µM (inactive) | > 100 µM (inactive) | > 100 µM (inactive) | > 100 µM (inactive) | > 100 µM (inactive) |  |  | > 100 µM (inactive)
11 | CC1(C)CC(=O)C/C(=N/c2ccc([N+](=O)[O-])cc2)C1 | 76.4 µM (inactive) | 54.6 µM (inactive) | > 100 µM (inactive) | > 100 µM (inactive) | > 100 µM (inactive) | > 100 µM (inactive) | 64.3 | 16.3 µM (inactive) | 71.8 µM (inactive) | > 100 µM (inactive) | 40.9 µM (inactive) |  |  |  | > 100 µM (inactive) | > 100 µM (inactive) | 17.6 µM (inactive) | > 100 µM (inactive) | > 100 µM (inactive)
12 | O=C1N(c2ccccc2)C(=O)C2(SC=NN2Cc2ccccc2)N1c1ccccc1 (stereo unspecified) | > 100 µM (inactive) | > 100 µM (inactive) | > 100 µM (inactive) | > 100 µM (inactive) | > 100 µM (inactive) | > 100 µM (inactive) |  | > 100 µM (inactive) | > 100 µM (inactive) | > 100 µM (inactive) | > 100 µM (inactive) | > 100 µM (inactive) | > 100 µM (inactive) | > 100 µM (inactive) | > 100 µM (inactive) |  | > 100 µM (inactive) | > 100 µM (inactive) | > 100 µM (inactive)
13 | CCOc1cccc2ccc[n+](CC)c12 | 56.1 µM (inactive) | > 100 µM (inactive) | > 100 µM (inactive) | 75.7 µM (inactive) | 15.9 µM (inactive) | 25.2 µM (inactive) |  |  | 53.1 µM (inactive) | > 100 µM (inactive) | 16.4 µM (inactive) | > 100 µM (inactive) | 55.1 µM (inactive) | > 100 µM (inactive) | > 100 µM (inactive) | > 100 µM (inactive) | 37.1 µM (inactive) | > 100 µM (inactive) | 
14 | O=C(O)CSc1nnc(Cc2ccccc2)[nH]1 | > 100 µM (inactive) | > 100 µM (inactive) |  | > 100 µM (inactive) | > 100 µM (inactive) | > 100 µM (inactive) | > 100 | > 100 µM (inactive) | > 100 µM (inactive) | > 100 µM (inactive) | > 100 µM (inactive) | > 100 µM (inactive) | > 100 µM (inactive) | > 100 µM (inactive) | > 100 µM (inactive) | > 100 µM (inactive) | > 100 µM (inactive) | > 100 µM (inactive) | 
15 | Nc1ccc(C(=O)NN2C(=O)C(Cl)C2c2ccccc2Cl)cc1 (stereo unspecified) | 13.8 µM (inactive) | 17 µM (inactive) | 16.5 µM (inactive) | 4.45 µM (inactive) | 12.3 µM (inactive) | 3.24 µM (inactive) | 3.01 | 12.3 µM (inactive) |  | 13.4 µM (inactive) | 1.71 µM (inactive) | 16.9 µM (inactive) | 13.8 µM (inactive) | 7.93 µM (inactive) | 13.1 µM (inactive) | 15.2 µM (inactive) | 4.21 µM (inactive) | 20.3 µM (inactive) | 
16 | C[C@@]12CCCC(=O)N1[C@@H](CO)C(c1ccccc1)O2 (stereo partly specified) | > 100 µM (inactive) |  | > 100 µM (inactive) | > 100 µM (inactive) | > 100 µM (inactive) | > 100 µM (inactive) | > 100 | > 100 µM (inactive) | > 100 µM (inactive) | > 100 µM (inactive) |  | > 100 µM (inactive) | > 100 µM (inactive) | > 100 µM (inactive) |  | > 100 µM (inactive) | > 100 µM (inactive) | > 100 µM (inactive) | > 100 µM (inactive)
